Earlier results as cited in patent publication US10617778B2, “Self-sterilizing package and methods for making and using the same” (priority 2014, dated 2020).

Tested on: humans

In the case of `[O][Cl+][O-]` [chlorine dioxide], the “vapor concentration at which the gas can be toxic” value is given as “greater than 0.3 ppm”.
